Experimental findings from ChEMBL document CHEMBL1130458, “Inhibition of carboxypeptidase a by N-(4-t-Butylbenzoyl)-2-hydroxy-1-naphthaldehyde hydrazone” (Bioorg Med Chem Lett, 1997) are described below.

The target in assay [1] is T1, Carboxypeptidase A1 (Bos taurus) (UniProt P00730).
T1 sequence (whole entry): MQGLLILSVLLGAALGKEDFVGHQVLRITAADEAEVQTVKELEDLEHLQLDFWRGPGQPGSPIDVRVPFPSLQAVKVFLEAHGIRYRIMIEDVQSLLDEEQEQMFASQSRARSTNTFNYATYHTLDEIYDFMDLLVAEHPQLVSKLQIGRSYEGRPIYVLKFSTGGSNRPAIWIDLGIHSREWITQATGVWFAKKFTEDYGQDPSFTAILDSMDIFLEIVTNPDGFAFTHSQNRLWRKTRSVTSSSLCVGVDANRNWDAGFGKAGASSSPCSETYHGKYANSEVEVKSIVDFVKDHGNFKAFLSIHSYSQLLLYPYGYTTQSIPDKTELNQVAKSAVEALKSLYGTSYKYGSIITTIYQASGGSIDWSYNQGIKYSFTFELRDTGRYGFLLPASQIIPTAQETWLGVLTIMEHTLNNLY
Nature of the assay: Percentage inhibition of carboxypeptidase A (CPA, bovine, Type I) enzyme by the compound required to inhibit at 63 uM was evaluated.

Assay [2] deals with T2, Angiotensin-converting enzyme (Oryctolagus cuniculus) (UniProt P12822).
T2 sequence (whole entry): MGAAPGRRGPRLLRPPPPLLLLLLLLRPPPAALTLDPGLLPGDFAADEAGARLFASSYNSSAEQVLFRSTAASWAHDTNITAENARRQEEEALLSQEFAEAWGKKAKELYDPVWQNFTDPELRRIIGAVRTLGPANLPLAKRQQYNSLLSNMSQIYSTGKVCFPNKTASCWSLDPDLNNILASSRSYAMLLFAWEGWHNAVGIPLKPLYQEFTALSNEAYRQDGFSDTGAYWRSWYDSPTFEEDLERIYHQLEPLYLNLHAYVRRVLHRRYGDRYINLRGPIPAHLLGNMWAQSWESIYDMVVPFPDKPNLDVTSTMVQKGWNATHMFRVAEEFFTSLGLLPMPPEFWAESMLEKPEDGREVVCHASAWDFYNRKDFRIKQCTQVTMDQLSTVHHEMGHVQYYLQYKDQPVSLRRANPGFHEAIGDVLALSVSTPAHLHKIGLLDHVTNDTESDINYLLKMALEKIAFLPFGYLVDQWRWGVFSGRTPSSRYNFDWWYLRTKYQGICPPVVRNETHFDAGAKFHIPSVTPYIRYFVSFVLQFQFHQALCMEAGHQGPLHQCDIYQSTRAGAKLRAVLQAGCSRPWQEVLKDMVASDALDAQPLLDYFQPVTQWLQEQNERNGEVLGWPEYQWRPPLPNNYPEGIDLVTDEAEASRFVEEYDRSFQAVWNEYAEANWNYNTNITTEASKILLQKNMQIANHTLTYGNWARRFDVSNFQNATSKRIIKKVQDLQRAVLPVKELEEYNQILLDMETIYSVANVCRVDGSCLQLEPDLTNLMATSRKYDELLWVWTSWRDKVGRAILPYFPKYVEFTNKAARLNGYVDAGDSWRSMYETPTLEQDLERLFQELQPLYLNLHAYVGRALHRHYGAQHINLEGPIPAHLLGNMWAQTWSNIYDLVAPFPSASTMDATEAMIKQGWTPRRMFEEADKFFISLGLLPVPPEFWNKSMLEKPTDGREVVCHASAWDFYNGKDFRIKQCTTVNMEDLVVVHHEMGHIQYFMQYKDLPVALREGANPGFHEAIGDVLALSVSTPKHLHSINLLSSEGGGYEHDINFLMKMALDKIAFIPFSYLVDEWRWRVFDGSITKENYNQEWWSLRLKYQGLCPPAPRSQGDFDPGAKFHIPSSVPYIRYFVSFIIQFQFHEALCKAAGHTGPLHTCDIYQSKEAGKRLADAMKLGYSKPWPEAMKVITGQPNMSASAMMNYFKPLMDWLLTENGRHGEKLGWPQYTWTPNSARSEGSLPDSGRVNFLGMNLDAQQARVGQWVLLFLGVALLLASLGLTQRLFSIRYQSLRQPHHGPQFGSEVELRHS
Nature of the assay: Percentage inhibition of angiotensin converting enzyme (rabbit lung) by the compound required to inhibit at 63 uM was evaluated.

The target in assay [3] is T3, Carboxypeptidase A1 (Bos taurus, UniProt P00730).
T3 sequence (P00730 whole entry): T1 sequence (whole entry)
Nature of the assay: Inhibitory concentration required to inhibit carboxypeptidase A (CPA, bovine, Type I) was evaluated.

The term inhibition denotes how much of the control response was suppressed. Read a low inhibition as little suppression. Take `CC(C)(C)c1ccc(C(=O)N/N=C/c2ccccc2O)cc1`: the inhibition was 33% in assay [1] and 3% in assay [2].
The term IC50 denotes the point on the concentration scale where inhibition reaches its midpoint. A high value points to lower potency. `CC(C)(C)c1ccc(C(=O)N/N=C/c2c(O)ccc3ccccc23)cc1`: in assay [3], the half-inhibitory concentration (IC50) was found to be 29 µM. The compound also yielded an inhibition in assay [2] of 5%.
Take `CC(C)(C)c1ccc(C(=O)N/N=C/c2cccc3ccccc23)cc1`: the inhibition in assay [1] came out at 17%; in assay [2] it was 2%.
